Reference: US12018001B2, “Pyrimidine cyclohexenyl glucocorticoid receptor modulators” (priority 2018, dated 2024)
pIC50, pKi: −log10 of the molar value. Where two headings read alike, the source gives them in different places.

Tests used:
[1] = Rat pharmacokinetics (PK) studies, oral gavage cassette; format: in vivo, male Sprague Dawley rats; conditions: male, Sprague Dawley (or equivalent), rat plasma; for AUC(0-t): read-out: AUC0-24
Procedure: Rat PK studies were conducted in male Sprague Dawley rats (or equivalent) with 3 rats per group. Compounds were evaluated in cassettes of 4 compounds per cassette, with each cassette containing 3 test compounds and one comparator compound with known PK parameters. Rats were cannulated in the jugular vein. The compounds were administered by oral gavage using a suitable vehicle, such as 10% DMSO and 90% methyl cellulose. Compounds of Example 1, Example 10, Example 14, and Example 20 were evaluated with a nominal dose of 1.25 mg/kg and the compound of Example 32 was evaluated with a nominal dose of 3 mg/kg. Blood samples were collected at various timepoints out to 24 hours post-dose and processed to provide plasma. Compound concentrations in the plasma samples were determined by LC/MS analysis. Cmax and AUC were calculated using WinNonlin.

glucocorticoid receptor = molecular target: T1, glucocorticoid receptor (Homo sapiens, UniProt P04150); test: Hep G2 TAT assay: induction of TAT by dexamethasone in HepG2 cells; format: cell-based
T1 construct: host or cells: HepG2
T1 sequence (P04150 1-777): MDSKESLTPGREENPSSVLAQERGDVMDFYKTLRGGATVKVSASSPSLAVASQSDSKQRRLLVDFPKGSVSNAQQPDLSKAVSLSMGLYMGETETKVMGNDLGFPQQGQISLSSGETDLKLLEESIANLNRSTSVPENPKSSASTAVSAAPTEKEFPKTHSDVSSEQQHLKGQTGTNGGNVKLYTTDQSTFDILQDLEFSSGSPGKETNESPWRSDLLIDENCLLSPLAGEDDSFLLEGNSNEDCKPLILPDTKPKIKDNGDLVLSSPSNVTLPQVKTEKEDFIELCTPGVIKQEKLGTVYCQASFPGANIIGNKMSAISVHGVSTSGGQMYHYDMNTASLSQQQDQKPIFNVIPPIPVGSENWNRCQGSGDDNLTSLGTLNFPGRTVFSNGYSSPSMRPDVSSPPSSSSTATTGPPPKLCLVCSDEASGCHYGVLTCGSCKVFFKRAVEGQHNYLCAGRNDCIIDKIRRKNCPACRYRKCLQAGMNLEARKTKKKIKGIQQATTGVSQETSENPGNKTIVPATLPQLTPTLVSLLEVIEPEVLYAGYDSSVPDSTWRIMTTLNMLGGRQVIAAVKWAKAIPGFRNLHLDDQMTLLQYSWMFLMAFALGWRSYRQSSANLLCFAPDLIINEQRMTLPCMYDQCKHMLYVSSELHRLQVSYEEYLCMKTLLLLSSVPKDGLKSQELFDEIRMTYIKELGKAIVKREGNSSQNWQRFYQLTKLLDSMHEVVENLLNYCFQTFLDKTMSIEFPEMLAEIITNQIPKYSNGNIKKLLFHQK
Procedure: Glucocorticoid mediated activation of TAT occurs by transactivation of glucocorticoid response elements in the TAT promoter by glucocorticoid receptor-agonist complex.
TAT activity was measured as outlined in the literature by A. Ali et al., J. Med. Chem., 2004, 47, 2441-2452.
HepG2 cells were cultured using MEME media supplemented with 10% (v/v) foetal bovine serum; 2 mM L-glutamine and 1% (v/v) NEAA at 37° C., 5%/95% (v/v) CO2/air. The HepG2 cells were counted and adjusted to yield a density of 0.125×10^6 cells/ml in RPMI 1640 without phenol red, 10% (v/v) charcoal stripped FBS, 2 mM L-glutamine and seeded at 25,000 cells/well in 200 μl into 96 well, sterile, tissue culture micro titre plates, and incubated at 37° C., 5% CO2 for 24 hours
Growth media was removed and replaced with assay media {RPMI 1640 without phenol red, 2 mM L-glutamine+10 μM forskolin}. […] Compounds were serially half log diluted in 100% (v/v) dimethylsulphoxide from a 10 mM stock.
HepG2 cells were then lysed with 30 μl of cell lysis buffer containing a protease inhibitor cocktail for 15 minutes at 4° C. 155 μl of substrate mixture was then added containing 5.4 mM Tyrosine sodium salt, 10.8 mM alpha ketoglutarate and 0.06 mM pyridoxal 5′ phosphate in 0.1 M potassium phosphate buffer (pH 7.4). After 2 hours incubation at 37° C. the reaction was terminated by the addition of 15 μl of 10 M aqueous potassium hydroxide solution, and the plates incubated for a further 30 minutes at 37° C. The TAT activity product was measured by absorbance at λ 340 nm.
[compound] and fitting the data to a 4 parameter logistic equation.

GR = molecular target: T2, GR (Homo sapiens, UniProt P04150); test: GR binding
T2 sequence (P04150 1-777): T1 sequence (P04150 1-777)

| Compound | pKi (glucocorticoid receptor) | pIC50 (GR) | also measured |
| --- | --- | --- | --- |
| N#Cc1ccc(C2=CCC(c3[nH]c(=O)[nH]c(=O)c3Cc3ccccc3)CC2)c(Cl)c1 (stereo not drawn) [Example 1, 4′-(5-benzyl-2,6-dioxo-1,2,3,6-tetrahydropyrimidin-4-yl)-2-chloro-2′,3′,4′,5′-tetrahydro-[1,1′-biphenyl]-4-carbonitrile] | 7.55 | – | Cmax ([1]; nominal dose 1.25 mg/kg): 114 ng/mL; AUC(0-t) ([1]; nominal dose 1.25 mg/kg): 991 ng·h/mL |
| CCS(=O)(=O)c1cc(F)c(C2=CCC(c3[nH]c(=O)[nH]c(=O)c3Cc3ccccc3)CC2)c(F)c1 (stereo not drawn) [Example 105] | – | 7.15 | – |
| O=c1[nH]c(C2CC=C(c3ccc(Cl)cc3C(F)(F)F)CC2)c(Cc2ccccc2)c(=O)[nH]1 (stereo not drawn) [Example 10] | 7.42 | – | Cmax ([1]; nominal dose 1.25 mg/kg): 196 ng/mL; AUC(0-t) ([1]; nominal dose 1.25 mg/kg): 3040 ng·h/mL |
| CCOc1ccc(C2=CCC(c3[nH]c(=O)[nH]c(=O)c3Cc3ccccc3)CC2)c(Cl)c1 (stereo not drawn) [Example 82] | – | 8.36 | – |
| O=c1[nH]c(C2CC=C(c3cnc(C(F)(F)F)nc3)CC2)c(Cc2ccccc2)c(=O)[nH]1 (stereo not drawn) [Example 72] | – | 5.72 | – |
| O=c1[nH]c(C2CC=C(c3ccc(C(F)(F)F)c(Cl)c3)CC2)c(Cc2ccccc2)c(=O)[nH]1 (stereo not drawn) [Example 69] | – | 5.47 | – |
| CCS(=O)(=O)c1ccc(C2=CCC(c3[nH]c(=O)[nH]c(=O)c3Cc3ccccc3)CC2)c(Cl)c1 (stereo not drawn) [Example 107] | – | 8.55 | – |
| O=c1[nH]c(C2CC=C(c3cccnc3C(F)(F)F)CC2)c(Cc2ccccc2)c(=O)[nH]1 (stereo not drawn) [Example 14] | 7.39 | – | Cmax ([1]; nominal dose 1.25 mg/kg): 63 ng/mL; AUC(0-t) ([1]; nominal dose 1.25 mg/kg): 188 ng·h/mL |
| CN(C)S(=O)(=O)c1cc(F)c(C2=CCC(c3[nH]c(=O)[nH]c(=O)c3Cc3ccccc3)CC2)c(F)c1 (stereo not drawn) [Example 104] | – | 5.50 | – |
| COc1cc(C#N)ccc1C1=CCC(c2[nH]c(=O)[nH]c(=O)c2Cc2ccccc2)CC1 (stereo not drawn) [Example 20] | 7.48 | – | Cmax ([1]; nominal dose 1.25 mg/kg): 83.6 ng/mL; AUC(0-t) ([1]; nominal dose 1.25 mg/kg): 375 ng·h/mL |
| O=c1[nH]c(C2CC=C(c3ccc(Cl)c(F)c3F)CC2)c(Cc2ccccc2)c(=O)[nH]1 (stereo not drawn) [Example 83] | – | 7.42 | – |
| Cn1cnc2ccc(C3=CCC(c4[nH]c(=O)[nH]c(=O)c4Cc4ccccc4)CC3)cc21 (stereo not drawn) [Example 66] | – | 5.45 | – |
| N#Cc1ccc(C2=CCC(c3[nH]c(=O)[nH]c(=O)c3Cc3ccccc3)CC2)c(C(F)(F)F)c1 (stereo not drawn) [Example 32] | 7.18 | – | Cmax ([1]; nominal dose 3 mg/kg): 453 ng/mL; AUC(0-t) ([1]; nominal dose 3 mg/kg): 988 ng·h/mL |
| Cn1ncc2ccc(C3=CCC(c4[nH]c(=O)[nH]c(=O)c4Cc4ccccc4)CC3)cc21 (stereo not drawn) [Example 57] | – | 6.58 | – |
